SMILES strings stand for the structures.

One assay concerns the target human FPR2 (Homo sapiens (Human), UniProt P25090). Briefly: FPR2 cyclic adenosine monophosphate (cAMP) assay. The format is cell-based. As to conditions: CHO cells overexpressing human FPR2; forskolin 5 µM; inhibition of cAMP production; read-out: hFPR2 cAMP2 EC50. The procedure, abridged:
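CHO cells overexpressing human FPR2 (2,000/well) incubated 30 min at room temperature with compound (0.020 nM–100 µM, 1% DMSO), 5 µM forskolin and 200 µM IBMX.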

The next assay has as its target human FPR1 (Homo sapiens (Human), UniProt P21462). Briefly: FPR1 cyclic adenosine monophosphate (cAMP) assay. The format is cell-based. As to conditions: CHO cells overexpressing human FPR1; forskolin 10 µM; inhibition of cAMP production; read-out: hFPR1 cAMP EC50. In short, it runs like this: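 CHO cells overexpressing human FPR1 (4,000 cells/well) stimulated with 10 µM forskolin plus 200 µM IBMX in the presence of compound (0.020 nM–100 µM, 1% DMSO), 30 min at room temperature. Intracellular cAMP measured by HTRF. Inhibition of cAMP production fitted to a 4-parameter logistic equation.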
(In general: Changes in cAMP serve as a functional read-out for many G protein-coupled receptors.)

human FPR1, sequence (P21462 whole entry): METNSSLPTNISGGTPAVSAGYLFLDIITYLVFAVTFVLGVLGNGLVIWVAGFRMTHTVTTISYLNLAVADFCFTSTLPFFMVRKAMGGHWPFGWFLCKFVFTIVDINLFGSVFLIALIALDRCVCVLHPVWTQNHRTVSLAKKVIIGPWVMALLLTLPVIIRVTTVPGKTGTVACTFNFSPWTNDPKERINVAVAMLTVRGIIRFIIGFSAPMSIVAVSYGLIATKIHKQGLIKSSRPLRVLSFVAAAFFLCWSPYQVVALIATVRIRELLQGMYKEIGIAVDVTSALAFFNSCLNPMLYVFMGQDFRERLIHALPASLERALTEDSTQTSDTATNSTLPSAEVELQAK
human FPR2, sequence (P25090 whole entry): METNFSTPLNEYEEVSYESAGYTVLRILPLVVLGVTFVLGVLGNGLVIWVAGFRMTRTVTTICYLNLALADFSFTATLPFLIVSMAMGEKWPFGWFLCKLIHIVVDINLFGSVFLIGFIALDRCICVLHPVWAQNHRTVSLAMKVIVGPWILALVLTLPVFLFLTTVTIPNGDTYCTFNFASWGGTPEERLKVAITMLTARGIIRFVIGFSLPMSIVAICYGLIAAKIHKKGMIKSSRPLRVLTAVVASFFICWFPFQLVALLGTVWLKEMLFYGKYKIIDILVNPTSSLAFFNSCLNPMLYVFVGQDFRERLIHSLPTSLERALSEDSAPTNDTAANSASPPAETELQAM

Consider `COCCn1ncc(C)c(N2C[C@@H](c3c(F)cc(OC)cc3F)[C@H](NC(=O)c3ccc(OC(F)(F)F)cc3)C2=O)c1=O` [Example 471], for which the figures for the EC50 on human FPR2 and at human FPR1 were 1.1 nM and 2 nM, respectively.
In the same order, the values of `COCCn1ncc(C)c(N2C[C@@H](c3c(F)cc(OC)cc3F)[C@H](NC(=O)c3ccc(OC(F)F)cc3)C2=O)c1=O` [Example 472] are 1.2 nM and 1.7 nM.
In the same order, the values of `COc1cc(F)c([C@@H]2CN(c3ccnn(CC(F)F)c3=O)C(=O)[C@H]2NC(=O)c2ccc(OC(F)(F)F)cc2)c(F)c1` [Example 473] are 1.8 nM and 2 nM.
For the compound `COc1cc(F)c([C@@H]2CN(c3ccnn(CC(F)F)c3=O)C(=O)[C@H]2NC(=O)c2ccc(OC(F)F)cc2)c(F)c1` [Example 474], the EC50 – broadly, the concentration that produces a half-maximal response – at human FPR2 is 2.1 nM; at human FPR1, 4 nM.
On the same counts, the results for `COc1cc(F)c([C@@H]2CN(c3ccnn(CC(O)C(F)(F)F)c3=O)C(=O)[C@H]2NC(=O)c2ccc(OC(F)F)cc2)c(F)c1` (stereo partly drawn) [Example 475] are 2 nM and 20 nM.
In the same order, the values of `COCC(CO)n1nccc(N2C[C@@H](c3c(F)cc(OC)cc3F)[C@H](NC(=O)c3ccc(OC(F)F)cc3)C2=O)c1=O` (stereo partly drawn) [Example 476] are 1.7 nM and 14 nM.
In the same order, the values of `COCC(CO)n1nccc(N2C[C@@H](c3c(F)cc(OC)cc3F)[C@H](NC(=O)c3ccc(Cl)cc3)C2=O)c1=O` (stereo partly drawn) [Example 477] are 1 nM and 13 nM.
Turning to `COc1cc(F)c([C@@H]2CN(c3c(C)ccn(C4CCOCC4)c3=O)C(=O)[C@H]2NC(=O)c2ccc(OC(F)(F)F)cc2)c(F)c1` [Example 478], the EC50 on human FPR2 came to 5.9 nM; on human FPR1, 1 nM.
In the case of `COc1cc(F)c([C@@H]2CN(c3c(C)ccn(C4CCOC4)c3=O)C(=O)[C@H]2NC(=O)c2ccc(OC(F)F)cc2)c(F)c1` (stereo partly drawn) [Example 479], the results for the EC50 on human FPR2 and at human FPR1 were 9.4 nM and 5 nM, respectively.
Take `COc1cc(F)c([C@@H]2CN(c3nccc(N4CCC(C)(O)C4)c3C(F)(F)F)C(=O)[C@H]2NC(=O)c2ccc(Cl)cc2)c(F)c1` (stereo partly drawn) [Example 480]: the half-maximal effective concentration (EC50) at human FPR2 was determined as 5.7 nM; at human FPR1, 300 nM.
In the same order, the values of `COc1cc(F)c([C@@H]2CN(c3nccc(N4CCN5CCCC5C4)c3C(F)(F)F)C(=O)[C@H]2NC(=O)c2ccc(Cl)cc2)c(F)c1` (stereo partly drawn) [Example 481] are 1.2 nM and 2200 nM.
In the same order, the values of `COCC(C(=O)N1CC2(COC2)C1)n1cccc(N2C[C@@H](c3c(F)cc(OC)cc3F)[C@H](NC(=O)c3ccc(OC(F)(F)F)cc3)C2=O)c1=O` (stereo partly drawn) [Example 482] are 2.5 nM and 1 nM.
In the case of `COc1cc(F)c([C@@H]2CN(c3c(C)ccn(CC(O)C(F)(F)F)c3=O)C(=O)[C@H]2NC(=O)c2ccc(Cl)cc2)c(F)c1` (stereo partly drawn) [Example 483], the EC50 at human FPR2 worked out at 5.6 nM; on human FPR1 it was 16 nM.
On the same counts, the results for `COCCN1CCCC(N2C[C@@H](c3c(F)cc(OC)cc3F)[C@H](NC(=O)c3ccc(OC(F)(F)F)cc3)C2=O)C1=O` (stereo partly drawn) [Example 484] are 3 nM and 420 nM.
In the same order, the values of `COCC(C(=O)N1CCCC1)n1cccc(N2C[C@@H](c3c(F)cc(OC)cc3F)[C@H](NC(=O)c3ccc(OC(F)F)cc3)C2=O)c1=O` (stereo partly drawn) [Example 485] are 1.7 nM and 2 nM.
On the same counts, the results for `COc1cc(F)c([C@@H]2CN(c3cncn(CC(O)C(F)(F)F)c3=O)C(=O)[C@H]2NC(=O)c2ccc(Cl)cc2)c(F)c1` (stereo partly drawn) [Example 486] are 4.3 nM and 36 nM.
Consider `COc1cc(F)c([C@@H]2CN(c3cncn(CCC(F)(F)F)c3=O)C(=O)[C@H]2NC(=O)c2ccc(OC(F)F)cc2)c(F)c1` [Example 487], for which the EC50 on human FPR2 was determined as 1.9 nM; at human FPR1, 720 nM.
Consider `COc1cc(F)c([C@@H]2CN(c3cncn(CCO)c3=O)C(=O)[C@H]2NC(=O)c2ccc(OC(F)F)cc2)c(F)c1` [Example 488], for which the EC50 on human FPR2 was 2.6 nM; at human FPR1, 790 nM.
